What was measured:
[1] = tested on: cancer cell lines of Table 2; test: Multiplexed cytotoxicity assay: cell proliferation (relative cell count IC50, GI50); type: cell-based
Experimental: Cells are grown in RPMI1640, 10% FBS, 2 mM L-alanyl-L-Glutamine, 1 mM Na pyruvate or a special medium in a humidified atmosphere of 5% CO2 at 37° C. Cells are seeded into 384-well plates and incubated in a humidified atmosphere of 5% CO2 at 37° C. Compounds are added 24 h post cell seeding. At the same time, a time zero untreated cell plate is generated. After a 72 hour incubation period, cells are fixed and stained with fluorescently labeled antibodies and nuclear dye to allow visualization of nuclei, apoptotic cells and mitotic cells. Apoptotic cells are detected using an anti-active caspase-3 antibody. Mitotic cells are detected using an anti phospho-histone-3 antibody. Compounds are serially diluted 3.16-fold and assayed over 10 concentrations in a final assay concentration of 0.1% DMSO from the highest test concentration of 10 μM. Automated fluorescence microscopy was carried out using a Molecular Devices ImageXpress Micro XL high-content imager, and images are collected with a 4× objective.
(§1) Sixteen-bit TIFF images are acquired and analyzed with MetaXpress 5.1.0.41 software. Cell proliferation is measured by the signal intensity of the incorporated nuclear dye. The cell proliferation assay output is referred to as the relative cell count. To determine the cell proliferation end point, the cell proliferation data output is transformed to percentage of control (POC) using the following formula: POC=relative cell count(compound wells)/relative cell count(vehicle wells)×100
(§2) GI50 is the concentration needed to reduce the observed growth by half. This is the concentration that inhibits the growth to the level midway between growth in untreated cells and the number of cells seeded in the well (Time zero value). The IC50 values are calculated using nonlinear regression to fit data to a sigmoidal 4 point, 4 parameter One-Site dose response model, where: y(fit)=A+[(B−A)/(1+((C/x)^D))].
In Another Experiment, Cells were Grown in RPMI1640, 10% FBS, 2 mM L-alanyl-L-Glutamine, 1 mM Na pyruvate or a special medium in a humidified atmosphere of 5% CO2 at 37° C. Cells were seeded into 384-well plates and incubated in a humidified atmosphere of 5% CO2 at 37° C. Compounds were added 24 h post cell seeding. At the same time, a time zero untreated cell plate was generated. After a 72 hour incubation period, cells were fixed and stained with fluorescently labeled antibodies and nuclear dye to allow visualization of nuclei, apoptotic cells and mitotic cells. Apoptotic cells were detected using an anti-active caspase-3 antibody. Mitotic cells were detected using an anti phospho-histone-3 antibody. Compounds were serially diluted 3.16-fold and assayed over 10 concentrations in a final assay concentration of 0.1% DMSO from the highest test concentration of 10 μM. Automated fluorescence microscopy was carried out using a Molecular Devices ImageXpress Micro XL high-content imager, and images were collected with a 4× objective.
as §1, with “images were” for “images are”, “proliferation was” for “proliferation is”, “output was” for “output is”
as §2, with “GI50 refers to” for “GI50 is”, “This corresponds to” for “This is”, “values were” for “values are”

ERK 1/2 = test: Known kinases inhibited (no method given); type: biochemical
[2] = Homo sapiens, A204, A204, Soft Tissue, Sarcoma
[3] = Homo sapiens, A704, A704, Kidney
[4] = Homo sapiens, ARH-77, ARH77, Myeloma
[5] = Homo sapiens, BT-474, BT474, Breast
[6] = Homo sapiens, BT-549, BT549, Breast
[7] = Homo sapiens, C-4-II, C4II, Female GU, Cervix
[8] = Homo sapiens, CCF-STTG1, CCFSTTG1, CNS, Glioma
[9] = Homo sapiens, CFPAC-1, CFPAC1, Pancreas
[10] = Homo sapiens, ChaGo-K-1, CHAGOK1, Lung, NSCLC
[11] = Homo sapiens, K562, K562, Leukemia
[12] = Homo sapiens, ME-180, ME180, Female GU, Ovary
[13] = Homo sapiens, NALM-6, NALM6, Leukemia
[14] = Homo sapiens, NCI-H295R, NCIH295R, Endocrine, Adrenal gland
[15] = Homo sapiens, NCI-H460, NCIH460, Lung, NSCLC
[16] = Homo sapiens, OVCAR-3, OVCAR3, Female GU, Ovary
[17] = Homo sapiens, SK-NEP-1, SKNEP1, Kidney
[18] = Homo sapiens, SK-UT-1, SKUT1, Soft Tissue, Sarcoma
[19] = Homo sapiens, SNU-16, SNU16, Stomach
[20] = Homo sapiens, SiHa, Female GU, Cervix
[21] = Homo sapiens, T98G, CNS, Glioma
[22] = KHOS-240S, KHOS240S, Soft Tissue, Osteosarcoma

SMILES: C[C@]1(C(N)=O)CC[C@@H](n2c(Nc3c(Cl)cc(Cl)cc3Cl)nc3cnc(N[C@@H]4CCOC[C@H]4F)nc32)CC1 [Compound 1, cis-4-[2-{[(3S,4R)-3-fluorooxan-4-yl]amino}-8-(2,4,6-trichloroanilino)-9H-purin-9-yl]-1-methyl cyclohexane-1-carboxamide]
- GI50 ([1]; BC1, Lymphoma): 10 µM
- IC50 ([1]; BC1, Lymphoma): 10 µM
- GI50 ([1]; C4I, Female GU, Cervix): 10 µM
- IC50 ([1]; C4I, Female GU, Cervix): 10 µM
- GI50 ([1]; CEM/C1, CEMC1, Leukemia): 10 µM
- IC50 ([1]; CEM/C1, CEMC1, Leukemia): 10 µM
- IC50 ([1]; CML-T1, CMLT1, Leukemia): 10 µM
- IC50 ([1]; DB, Lymphoma): 10 µM
- IC50 ([1]; HS229T, Lung, NSCLC): 10 µM
- IC50 ([1]; HS688AT, Skin, Melanoma): 10 µM
- IC50 ([1]; HS729, Soft Tissue, Sarcoma): 10 µM
- IC50 ([1]; HS821T, Soft Tissue, Sarcoma): 10 µM
- IC50 ([1]; HS888SK, Soft Tissue, Osteosarcoma): 10 µM
- GI50 ([1]; HS895T, Skin, Melanoma): 10 µM
- IC50 ([1]; HS895T, Skin, Melanoma): 10 µM
- IC50 ([1]; HS934T, Skin, Melanoma): 10 µM
- IC50 ([1]; HT, Lymphoma): 10 µM
- GI50 [1, 2]: 10 µM
- IC50 [1, 2]: 10 µM
- IC50 ([1]; Homo sapiens, A253, A253, Head and Neck): 10 µM
- GI50 [1, 3]: 10 µM
- IC50 [1, 3]: 10 µM
- GI50 [1, 4]: 10 µM
- IC50 [1, 4]: 10 µM
- IC50 ([1]; Homo sapiens, ASPC1, ASPC1, Pancreas): 10 µM
- IC50 ([1]; Homo sapiens, BT-20, BT20, Breast): 10 µM
- GI50 [1, 5]: 10 µM
- IC50 [1, 5]: 10 µM
- GI50 [1, 6]: 10 µM
- IC50 [1, 6]: 10 µM
- IC50 ([1]; Homo sapiens, BV-173, BV173, Leukemia): 10 µM
- GI50 [1, 7]: 10 µM
- IC50 [1, 7]: 10 µM
- IC50 ([1]; Homo sapiens, CAPAN-1, CAPAN1, Pancreas): 10 µM
- GI50 [1, 8]: 10 µM
- IC50 [1, 8]: 10 µM
- GI50 [1, 9]: 10 µM
- IC50 [1, 9]: 10 µM
- IC50 ([1]; Homo sapiens, COLO 320DM, COLO320DM, Colon): 10 µM
- IC50 ([1]; Homo sapiens, Ca-Ski, CASKI, Female GU, Ovary): 10 µM
- IC50 ([1]; Homo sapiens, Caov-3, CAOV3, Female GU, Ovary): 10 µM
- GI50 [1, 10]: 10 µM
- IC50 [1, 10]: 10 µM
- IC50 ([1]; Homo sapiens, DMS-53, DMS53, Lung, SCLC): 10 µM
- IC50 ([1]; Homo sapiens, Daudi, Lymphoma): 10 µM
- IC50 ([1]; Homo sapiens, Detroit 562, DETROIT562, Head and Neck): 10 µM
- IC50 ([1]; Homo sapiens, EFM-19, EFM19, Breast): 10 µM
- IC50 ([1]; Homo sapiens, HT1197, HT1197, Bladder): 10 µM
- GI50 [1, 11]: 10 µM
- IC50 [1, 11]: 10 µM
- IC50 ([1]; Homo sapiens, MDA-MB-415, MDAMB415, Breast): 10 µM
- IC50 ([1]; Homo sapiens, MDA-MB-436, MDAMB436, Breast): 10 µM
- GI50 [1, 12]: 10 µM
- IC50 [1, 12]: 10 µM
- GI50 [1, 13]: 10 µM
- IC50 [1, 13]: 10 µM
- IC50 ([1]; Homo sapiens, NCI-H69, NCIH69, Lung, SCLC): 10 µM
- GI50 [1, 14]: 10 µM
- IC50 [1, 14]: 10 µM
- IC50 ([1]; Homo sapiens, NCI-H446, NCIH446, Lung, SCLC): 10 µM
- GI50 [1, 15]: 10 µM
- IC50 [1, 15]: 10 µM
- IC50 ([1]; Homo sapiens, NCI-H596, NCIH596, Lung, NSCLC): 10 µM
- IC50 ([1]; Homo sapiens, OE19, OE19, Head and Neck, Esophageal): 10 µM
- GI50 [1, 16]: 10 µM
- IC50 [1, 16]: 10 µM
- IC50 ([1]; Homo sapiens, PFSK-1, PFSK1, CNS, Glioma): 10 µM
- IC50 ([1]; Homo sapiens, Raji, Lymphoma): 10 µM
- IC50 ([1]; Homo sapiens, SK-N-DZ, SKNDZ, CNS, Neuroblastoma): 10 µM
- GI50 [1, 17]: 10 µM
- IC50 [1, 17]: 10 µM
- IC50 ([1]; Homo sapiens, SK-OV-3, SKOV3, Female GU, Ovary): 10 µM
- GI50 [1, 18]: 10 µM
- IC50 [1, 18]: 10 µM
- GI50 [1, 19]: 10 µM
- IC50 [1, 19]: 10 µM
- GI50 [1, 20]: 10 µM
- IC50 [1, 20]: 10 µM
- GI50 ([1]; Homo sapiens, T47D, Breast): 10 µM
- IC50 ([1]; Homo sapiens, T47D, Breast): 10 µM
- GI50 [1, 21]: 10 µM
- IC50 [1, 21]: 10 µM
- IC50 ([1]; Homo sapiens, U138-MG, U138MG, CNS, Glioma): 10 µM
- IC50 ([1]; Homo sapiens, U-118-MG, U118MG, CNS, Glioma): 10 µM
- GI50 ([1]; J82, Bladder): 10 µM
- IC50 ([1]; J82, Bladder): 10 µM
- GI50 [1, 22]: 10 µM
- IC50 [1, 22]: 10 µM
- GI50 ([1]; KLE, Female GU, Uterus): 10 µM
- IC50 ([1]; KLE, Female GU, Uterus): 10 µM
- GI50 ([1]; KPL-1, KPL1, Breast): 10 µM
- IC50 ([1]; KPL-1, KPL1, Breast): 10 µM
- IC50 ([1]; SKPNDW, Stomach): 10 µM
- IC50 ([1]; TE125T, Soft Tissue, Sarcoma): 10 µM
- IC50 ([1]; TT, Endocrine, Thyroid): 10 µM
- GI50 ([1]; Y79, Eye-retinoblastoma): 10 µM
- IC50 ([1]; Y79, Eye-retinoblastoma): 10 µM
- Anti-proliferative activity ([1]; variety of cancer cell lines (Table 3)): anti-proliferative activity
- Kinase inhibition (ERK 1/2): inhibited
